Consider eleven compounds from ChEMBL document CHEMBL5365493 (J Med Chem, 2023).

In data set [1] the target is T1, Dipeptidyl peptidase 4 (Homo sapiens, UniProt P27487). Briefly: Inhibition of DPP4 (unknown origin).
In data set [2] the target is T2, Dipeptidyl peptidase 9 (Homo sapiens, UniProt Q86TI2). In words: Inhibition of DPP9 (unknown origin).
For data set [3], the target named is T3, Dipeptidyl peptidase 8 (Homo sapiens, UniProt Q6V1X1). In words: Inhibition of DPP8 (unknown origin).
The target of data set [4] is T4, Dipeptidyl peptidase 2 (Homo sapiens, UniProt Q9UHL4). In words: Inhibition of DPP2 (unknown origin).
A short description of data set [5]: Selectivity index, ratio of IC50 for DPP9 (unknown origin) to IC50 for DPP8 (unknown origin).
Data set [6] can be described thus: Selectivity index, ratio of IC50 for DPP9 (unknown origin) to IC50 for DPP4 (unknown origin).
Data set [7] concerns the target T2, Dipeptidyl peptidase 9. In words: Inhibition of N-terminal human recombinant DPP9 expressed in Sf9 insect cells using Ala-Pro-paranitroanilide as substrate incubated for 15 mins by […].
Data set [8] addresses T3, Dipeptidyl peptidase 8. In words: Inhibition of N-terminal human recombinant DPP8 expressed in Sf9 insect cells using Ala-Pro-paranitroanilide as substrate incubated for 15 mins by […].
For data set [9], the target named is T1, Dipeptidyl peptidase 4. In words: Inhibition of human seminal plasma DPP4 using Ala-Pro-paranitroanilide as substrate incubated for 15 mins by […]. It is filed as cell-free.
Data set [10] deals with T4, Dipeptidyl peptidase 2. In words: Inhibition of human recombinant DPP2 using Lys-Ala-pNA as substrate incubated for 15 mins by […].
The target in data set [11] is T5, Prolyl endopeptidase (Homo sapiens, UniProt P48147).
T5 sequence (P48147 whole entry): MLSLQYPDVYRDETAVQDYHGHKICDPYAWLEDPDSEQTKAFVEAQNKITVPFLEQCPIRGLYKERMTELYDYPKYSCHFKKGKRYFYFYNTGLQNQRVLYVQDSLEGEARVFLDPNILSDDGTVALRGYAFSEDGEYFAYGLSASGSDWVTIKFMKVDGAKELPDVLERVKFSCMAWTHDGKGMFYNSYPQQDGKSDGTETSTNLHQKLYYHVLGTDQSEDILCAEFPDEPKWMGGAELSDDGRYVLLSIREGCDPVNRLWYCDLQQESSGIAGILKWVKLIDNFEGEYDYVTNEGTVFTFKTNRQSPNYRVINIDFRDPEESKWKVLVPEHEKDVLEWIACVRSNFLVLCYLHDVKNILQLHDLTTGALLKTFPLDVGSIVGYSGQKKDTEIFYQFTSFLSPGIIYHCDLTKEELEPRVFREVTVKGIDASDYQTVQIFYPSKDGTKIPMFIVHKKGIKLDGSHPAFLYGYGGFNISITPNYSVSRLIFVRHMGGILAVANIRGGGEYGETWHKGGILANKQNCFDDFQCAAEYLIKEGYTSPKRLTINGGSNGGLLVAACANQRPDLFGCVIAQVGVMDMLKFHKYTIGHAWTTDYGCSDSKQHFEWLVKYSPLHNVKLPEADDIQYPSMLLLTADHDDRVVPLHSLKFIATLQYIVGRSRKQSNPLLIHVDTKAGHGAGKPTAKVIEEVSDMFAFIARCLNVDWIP
Briefly: Inhibition of human recombinant PREP expressed in Escherichia coli BL21(DE3) using N-succinyl-Gly-Pro-AMC as substrate incubated for 15 mins by fluorescence based analysis.

Data set [12] can be described thus: Kinetic solubility of the compound in phosphate buffer at pH 7.4 at 200 uM incubated for 2 hrs by spectrophotometric analysis. As to conditions: pH 7.4, 2 h. The data set is classed as physicochemical.
In another data set the test system is THP-1. In words: Induction of cell death in human THP-1 cells assessed as increase in LDH release incubated for 24 hrs by CyQuant reagent based analysis. It is filed as functional. As to conditions: dose 1-10 µM.
A short description of data set [13]: Clearance in Wistar rat at 5 mg/kg, iv administered as single dose measured upto 24 hrs by LC/MS-MS analysis. It is filed as ADME, organism-based. As to conditions: in vivo.
Data set [14] can be described thus: Volume of distribution in Wistar rat at 5 mg/kg, iv administered as single dose measured upto 24 hrs by LC/MS-MS analysis. The data set is classed as ADME, organism-based. As to conditions: in vivo.
A short description of data set [15]: Half life in Wistar rat at 5 mg/kg, iv administered as single dose measured upto 24 hrs by LC/MS-MS analysis. It is filed as ADME, organism-based. As to conditions: in vivo.
Data set [16] in a line: AUC(0 to end) in Wistar rat at 5 mg/kg, iv administered as single dose measured upto 24 hrs by LC/MS-MS analysis. It is filed as ADME, organism-based. Further details: time < 24 hrs, dose 5 mg/kg, route iv. To be noted: in vivo.
Data set [17] in a line: AUC(0 to end) in Wistar rat at 20 mg/kg, po measured upto 24 hrs by LC/MS-MS analysis. It is filed as ADME, organism-based. Further details: time < 24 hrs, dose 20 mg/kg, route po. To be noted: in vivo.
Data set [18] is described as follows: Oral bioavailability in Wistar rat at 20 mg/kg measured upto 24 hrs by LC/MS-MS analysis. The data set is classed as ADME, organism-based. To be noted: in vivo.
Data set [19] is described as follows: Toxicity in Wistar rat assessed as adverse effects at 5 mg/kg, iv administered as single dose measured upto 24 hrs. It is filed as organism-based. To be noted: in vivo.
A short description of data set [20]: Toxicity in Wistar rat assessed as adverse effects at 20 mg/kg, po measured upto 24 hrs. It is filed as organism-based. As to conditions: in vivo.
The nature of data set [21]: Toxicity in Wistar rat assessed as change in body weight at 5 mg/kg, iv administered as single dose measured upto 24 hrs. It is filed as organism-based. To be noted: in vivo.
Data set [22] can be described thus: Toxicity in Wistar rat assessed as change in body weight at 20 mg/kg, po measured upto 24 hrs. The data set is classed as organism-based. To be noted: in vivo.
Another data set has as its system HL-60. Briefly: Induction of cell death in human HL-60 cells assessed as increase in LDH release at 10 uM incubated for 24 hrs by CyQuant reagent based analysis. It is filed as functional. On the technique in general: Release of lactate dehydrogenase indicates damage to the cell membrane.
Data set [23] concerns the target T5, Prolyl endopeptidase. In words: Inhibition of PREP (unknown origin).
Data set [24] in a line: Selectivity index, ratio of Ki for DPP9 (unknown origin) to Ki for DPP8 (unknown origin).
Data set [25] concerns the target T2, Dipeptidyl peptidase 9. Briefly: Binding affinity to DPP9 (unknown origin) assessed as inhibition constant.

Molecules are shown by their SMILES. Activity calls are given as the source filed them. No cut-off for these calls is given here.

T3 sequence (Q6V1X1 whole entry): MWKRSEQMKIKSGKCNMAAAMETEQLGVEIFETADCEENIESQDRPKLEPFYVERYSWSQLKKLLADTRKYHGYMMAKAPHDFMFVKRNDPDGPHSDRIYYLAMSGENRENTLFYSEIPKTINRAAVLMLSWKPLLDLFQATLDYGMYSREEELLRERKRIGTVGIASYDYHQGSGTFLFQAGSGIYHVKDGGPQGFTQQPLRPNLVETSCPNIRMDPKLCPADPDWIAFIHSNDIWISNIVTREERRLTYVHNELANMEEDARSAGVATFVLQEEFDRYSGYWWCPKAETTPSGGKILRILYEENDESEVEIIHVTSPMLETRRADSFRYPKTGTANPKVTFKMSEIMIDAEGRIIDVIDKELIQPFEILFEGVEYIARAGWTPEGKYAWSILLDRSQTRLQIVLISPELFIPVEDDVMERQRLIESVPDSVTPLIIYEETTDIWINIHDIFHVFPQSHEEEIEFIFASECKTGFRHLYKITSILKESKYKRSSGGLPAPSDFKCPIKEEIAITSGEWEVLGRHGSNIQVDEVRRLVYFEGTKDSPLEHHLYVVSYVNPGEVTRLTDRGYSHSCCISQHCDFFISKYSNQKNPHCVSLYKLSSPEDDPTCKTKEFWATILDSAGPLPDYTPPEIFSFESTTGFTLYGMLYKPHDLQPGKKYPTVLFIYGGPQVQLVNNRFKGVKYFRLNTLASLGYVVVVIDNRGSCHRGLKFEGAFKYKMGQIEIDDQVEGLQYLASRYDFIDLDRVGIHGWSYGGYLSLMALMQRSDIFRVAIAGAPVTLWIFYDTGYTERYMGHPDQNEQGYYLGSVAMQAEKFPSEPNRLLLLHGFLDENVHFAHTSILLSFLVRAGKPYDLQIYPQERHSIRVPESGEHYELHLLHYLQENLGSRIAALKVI
T1 sequence (P27487 whole entry): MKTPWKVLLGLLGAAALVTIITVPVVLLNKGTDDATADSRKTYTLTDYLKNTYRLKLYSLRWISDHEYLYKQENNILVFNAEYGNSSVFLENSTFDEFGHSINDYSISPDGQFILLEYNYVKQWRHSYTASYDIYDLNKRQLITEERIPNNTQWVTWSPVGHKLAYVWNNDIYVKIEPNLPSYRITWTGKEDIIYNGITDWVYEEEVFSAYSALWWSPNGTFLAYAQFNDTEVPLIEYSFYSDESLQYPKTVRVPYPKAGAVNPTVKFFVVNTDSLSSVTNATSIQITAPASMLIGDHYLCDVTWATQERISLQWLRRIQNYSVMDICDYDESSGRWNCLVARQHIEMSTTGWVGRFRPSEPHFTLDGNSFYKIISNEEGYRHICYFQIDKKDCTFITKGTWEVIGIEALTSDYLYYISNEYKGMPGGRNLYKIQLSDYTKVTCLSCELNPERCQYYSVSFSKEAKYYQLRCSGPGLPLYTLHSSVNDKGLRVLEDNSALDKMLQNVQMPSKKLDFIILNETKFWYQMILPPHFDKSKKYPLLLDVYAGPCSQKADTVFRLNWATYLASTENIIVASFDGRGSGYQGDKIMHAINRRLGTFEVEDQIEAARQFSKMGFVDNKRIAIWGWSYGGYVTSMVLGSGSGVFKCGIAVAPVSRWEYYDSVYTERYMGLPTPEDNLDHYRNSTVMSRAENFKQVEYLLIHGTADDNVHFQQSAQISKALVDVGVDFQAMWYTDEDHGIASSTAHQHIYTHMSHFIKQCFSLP
T2 sequence (Q86TI2 whole entry): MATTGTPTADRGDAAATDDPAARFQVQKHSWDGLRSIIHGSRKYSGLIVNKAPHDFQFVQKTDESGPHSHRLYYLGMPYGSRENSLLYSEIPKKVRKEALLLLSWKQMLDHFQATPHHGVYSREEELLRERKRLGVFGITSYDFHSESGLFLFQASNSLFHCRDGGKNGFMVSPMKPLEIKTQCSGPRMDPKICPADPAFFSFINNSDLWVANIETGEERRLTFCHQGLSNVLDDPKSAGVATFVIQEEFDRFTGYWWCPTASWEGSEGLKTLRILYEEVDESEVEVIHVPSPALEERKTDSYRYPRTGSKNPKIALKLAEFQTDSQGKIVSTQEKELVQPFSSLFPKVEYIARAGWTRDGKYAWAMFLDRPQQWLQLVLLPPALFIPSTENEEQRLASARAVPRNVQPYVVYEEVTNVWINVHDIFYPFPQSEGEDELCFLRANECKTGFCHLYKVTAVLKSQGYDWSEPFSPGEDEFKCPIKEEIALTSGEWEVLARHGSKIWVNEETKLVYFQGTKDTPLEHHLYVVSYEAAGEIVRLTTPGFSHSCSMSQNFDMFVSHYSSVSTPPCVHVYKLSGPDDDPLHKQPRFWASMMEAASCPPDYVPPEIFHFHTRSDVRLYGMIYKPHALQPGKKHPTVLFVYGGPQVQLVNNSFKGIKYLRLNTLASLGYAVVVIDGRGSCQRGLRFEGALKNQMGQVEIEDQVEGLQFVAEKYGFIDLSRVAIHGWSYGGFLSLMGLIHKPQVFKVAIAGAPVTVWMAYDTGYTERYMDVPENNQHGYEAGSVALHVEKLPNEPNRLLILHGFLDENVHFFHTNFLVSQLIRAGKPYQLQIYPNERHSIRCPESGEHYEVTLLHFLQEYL

Regarding `N[C@H](C(=O)N1Cc2ccccc2C1)C1CCC(O)CC1` (stereo partly specified), the IC50 (usually the concentration at which inhibition is half-maximal) against Dipeptidyl peptidase 4 [1] turned out to be 3.5 µM; against Dipeptidyl peptidase 9 [2] it was 0.001 µM; at Dipeptidyl peptidase 8 [3], 0.024 µM; on Dipeptidyl peptidase 2 [4], 3.1 µM. Moreover, the Ratio IC50 is 27 in data set [5] and 3890 in data set [6].
Turning to `CC(C)(C)OC(=O)NC12CC3CC(CC(NCC(=O)N4Cc5cc(F)c(F)cc5C4)(C3)C1)C2`, the IC50 was 0.003 µM at Dipeptidyl peptidase 9 [7]; 0.6 µM on Dipeptidyl peptidase 8 [8]; more than 10 µM against Dipeptidyl peptidase 4 [9]; more than 5 µM at Dipeptidyl peptidase 2 [10]; more than 10 µM at Prolyl endopeptidase [11]. For the same compound, the Kinetic_solubility result in [12] was “Soluble”. The Activity entry was “Dose-Dependent Effect” in the data set with THP-1; “Non-Toxic” in data set [19]; “Non-Toxic” in data set [20]; “Non-Toxic” in data set [21]; “Non-Toxic” in [22]. Besides, the clearance (in general, the volume of plasma or blood freed of the substance per unit of time) in data set [13] was 90 mL/min/kg. In data set [14], the Vd – broadly, a proportionality between amount in the body and measured concentration, not a real space – turned out to be 7.1 L/kg. The half-life (commonly the time in which the quantity being followed falls by half) in data set [15] is 43.6 min. Besides, the AUC – broadly, the area under the concentration-time curve, a measure of exposure – at 24 h in data set [16] was 1050 ng·h/mL; in data set [17], 63.4 ng·h/mL. Moreover, in [18], the bioavailability – broadly, the share of a dose that reaches the circulation, judged against a reference dose that is usually intravenous – came out at 2%.
For the compound `N[C@@H](CC(=O)N1CCN(C(c2ccc(F)cc2)c2ccc(F)cc2)CC1)C(=O)N1Cc2ccccc2C1`, the Activity result in the data set on THP-1 is “Dose-Dependent Effect”. In addition, the outcome with HL-60 was Active.
For the compound `CCCCOC12CC3CC(CC(NCC(=O)N4Cc5ccccc5C4)(C3)C1)C2`, the IC50 against Dipeptidyl peptidase 4 [1] is more than 10 µM; at Dipeptidyl peptidase 2 [4], more than 5 µM; on Prolyl endopeptidase [23], more than 10 µM. In addition, the Ratio IC50 in data set [5] was 6.4; in data set [6] it was more than 20.4.
Regarding `CC(C)(C)NC(=O)NC12CC3CC(CC(NCC(=O)N4Cc5ccc(F)cc5C4)(C3)C1)C2`, the IC50 is more than 10 µM against Dipeptidyl peptidase 4 [9], more than 5 µM at Dipeptidyl peptidase 2 [10] and more than 10 µM at Prolyl endopeptidase [11]. Further, the Kinetic_solubility result in [12] is listed as “Soluble”.
`O=C(NCCc1ccccc1)OC12CC3CC(CC(NCC(=O)N4Cc5ccccc5C4)(C3)C1)C2`: the IC50 is 0.2 µM at Dipeptidyl peptidase 9 [7]; 1.54 µM on Dipeptidyl peptidase 8 [8]; more than 10 µM on Dipeptidyl peptidase 4 [9]; more than 5 µM on Dipeptidyl peptidase 2 [10]; more than 10 µM on Prolyl endopeptidase [11].
Turning to `O=C(NCc1ccccn1)OC12CC3CC(CC(NCC(=O)N4Cc5ccccc5C4)(C3)C1)C2`, the IC50 at Dipeptidyl peptidase 9 [7] was 0.12 µM; on Dipeptidyl peptidase 8 [8], 1.1 µM; at Dipeptidyl peptidase 4 [9] it was more than 10 µM; at Dipeptidyl peptidase 2 [10] it was more than 5 µM; at Prolyl endopeptidase [11], more than 10 µM.
Regarding `CC(C)CCNC(=O)OC12CC3CC(CC(NCC(=O)N4Cc5ccccc5C4)(C3)C1)C2`, the IC50 was 0.33 µM at Dipeptidyl peptidase 9 [7]; 2.1 µM on Dipeptidyl peptidase 8 [8]; more than 10 µM against Dipeptidyl peptidase 4 [9]; more than 5 µM on Dipeptidyl peptidase 2 [10]; more than 10 µM on Prolyl endopeptidase [11].
Regarding `N#CCCCCNC12CC3CC(C1)CC(NCC(=O)N1Cc4ccccc4C1)(C3)C2`, the IC50 was 1.04 µM at Dipeptidyl peptidase 9 [7]; 4.6 µM on Dipeptidyl peptidase 8 [8]; more than 10 µM against Dipeptidyl peptidase 4 [9]; more than 5 µM on Dipeptidyl peptidase 2 [10]; more than 10 µM on Prolyl endopeptidase [11].
For the compound `CCC1(CC)C(=O)N(c2cccc(CN3CCN(Cc4cccc5ccccc45)CC3)c2)C1=O`, the Ratio Ki in data set [24] is less than 0.048. The Ki (usually a measure of affinity in units of concentration, obtained from inhibition or displacement) on Dipeptidyl peptidase 9 [25] is more than 2000 µM.
`CC(C)(C)C(=O)NC12CC3CC(CC(NCC(=O)N4Cc5ccccc5C4)(C3)C1)C2`: the IC50 was 1.1 µM at Dipeptidyl peptidase 9 [7]; 3.5 µM on Dipeptidyl peptidase 8 [8]; more than 10 µM at Dipeptidyl peptidase 4 [9]; more than 5 µM at Dipeptidyl peptidase 2 [10]; more than 10 µM on Prolyl endopeptidase [11].
